Measured values: US5998521A, “Aqueous fluoropolymer compositions and method of preparing the same” (3M Innovative Properties Company, priority 1996, dated 1999)

Tests used:
[1] = Surface tension and critical micelle concentration of aqueous surfactant solutions; format: physicochemical; settings: deionized water; for Surf. Tens.: at the CMC
Description: Critical Micelle Concentration (CMC): The critical micelle concentration is defined as the concentration at which further surface tension is no longer lowered with increasing levels of surfactant. To determine CMC, surface tension is measured as a function of surfactant concentration using a K-12 Processor Tensiometer in conjunction with a 665 Dosimat automatic surfactant injection device (also commercially available from Kruss GmbH). Surface tension is then plotted vs. log concentration and the data points are connected. The resulting curve has a nearly horizontal flat portion at concentrations above the CMC and has a negative steep slope at concentrations below the CMC. The CMC is defined as the lowest surfactant concentration in the horizontal flat portion of the curve.
(§1) Then the critical micelle concentration (CMC) was determined for each surfactant.
as §1

[2] = Thermogravimetric analysis of neat perfluorocarboxylate salts; format: physicochemical; settings: neat salt, nitrogen, 10° C./min
Text: Thermal degradation measurements were made on a series of neat perfluorocarboxylate salts, including several α-branched open chain structures (Examples N2-N9), a primarily linear open chain structure (Example N10-Fluorad™ FC-143 Fluorochemical Surfactant, commercially available from 3M Company, St. Paul, Minn.), and a closed chain (i.e., cyclic) structure (Example N11--made by the electrochemical fluorination of benzoic acid and hydrolysis in the presence of KOH, as described in U.S. Pat. No. 2,567,011 (Diesslin et al.)).
The perfluorocarboxylate salts were tested using a Perkin-Elmer TGA 7 thermogravimetric analysis apparatus and a salt sample size of approximately 5 mg, a heating rate of 10° C./min, and a nitrogen gas flow rate of 40-45 mL/min. Using the TGA 7 software, the following temperatures were recorded: (1) the onset temperature of decomposition, (2) the temperature at which 50% of the sample weight was lost, and (3) the temperature at which 90% of the sample weight was lost.

Molecule	Surf. Tens. ([1]; Table 3) [dynes/cm]	CMC ([1]; Table 3) [ppm]	Surf. Tens. ([1]; Table 5) [dynes/cm]	CMC ([1]; Table 5) [ppm]	also measured
C[N+](C)([O-])CCCNC(=O)C(F)(C(F)(F)F)C(F)(F)C(F)(F)C(F)(F)C(F)(F)C(F)(F)C(F)(F)C(F)(F)F (centres unmarked) [Example E1, C7 F15 CF(CF3)CONH(CH2)3 N^+ (CH3)2 O^-]	16.3	20			
C[N+](C)([O-])CCCNC(=O)C(F)(C(F)(F)F)C(F)(F)C(F)(F)C(F)(F)C(F)(F)C(F)(F)F (centres unmarked) [Example E2, C5 F11 CF(CF3)CONH(CH2)3 N^+ (CH3)2 O^-]	17.5	500			
C[N+](C)([O-])CCCNC(=O)C(F)(C(F)(F)F)C(F)(F)C(F)(F)C(F)(F)C(F)(F)C(F)(F)C(F)(F)F (centres unmarked) [Example E3, C6 F13 CF(CF3)CONH(CH2)3 N^+ (CH3)2 O^-]	16.6	100			
C[N+](C)([O-])CCCNC(=O)C(F)(C(F)(F)F)C(F)(F)C(F)(F)C(F)(F)C(F)(F)C(F)(F)C(F)(F)C(F)(F)C(F)(F)F (centres unmarked) [Example E4, C8 F17 CF(CF3)CONH(CH2)3 N^+ (CH3)2 O^-]	16.5	20			
C[N+](C)([O-])CCCNC(=O)C(F)(C(F)(F)F)C(F)(F)C(F)(F)C(F)(F)C(F)(F)C(F)(F)C(F)(F)C(F)(F)C(F)(F)C(F)(F)C(F)(F)F (centres unmarked) [Example E5, C10 F21 CF(CF3)CONH(CH2)3 N^+ (CH3)2 O^-]	17.1	500			
C[N+](C)([O-])CCCN(CCO)C(=O)C(F)(C(F)(F)F)C(F)(F)C(F)(F)C(F)(F)C(F)(F)C(F)(F)C(F)(F)C(F)(F)F (centres unmarked) [Example E8, C7 F15 CF(CF3)CON(C2 H4 OH)(CH2)3 N^+ (CH3)2 O^-]	16.6	125			
O=C(NCCOC(=O)C(F)(C(F)(F)F)C(F)(F)C(F)(F)C(F)(F)C(F)(F)C(F)(F)C(F)(F)C(F)(F)F)c1cc[n+]([O-])cc1 (centres unmarked) [Example E10]	14.5	400			
O=C(NCCOC(=O)C(F)(C(F)(F)F)C(F)(F)C(F)(F)C(F)(F)C(F)(F)C(F)(F)C(F)(F)F)c1cc[n+]([O-])cc1 (centres unmarked) [Example E11]	15.5	1000			
O=C(OCCc1cccc[n+]1[O-])C(F)(C(F)(F)F)C(F)(F)C(F)(F)C(F)(F)C(F)(F)C(F)(F)C(F)(F)F (centres unmarked) [Example E12]	18.3	8000			
O=C(OCCc1cccc[n+]1[O-])C(F)(C(F)(F)F)C(F)(F)C(F)(F)C(F)(F)C(F)(F)C(F)(F)C(F)(F)C(F)(F)F (centres unmarked) [Example E13]	15.0	6000			
C[n+]1ccc(C(=O)NCCOC(=O)C(F)(C(F)(F)F)C(F)(F)C(F)(F)C(F)(F)C(F)(F)C(F)(F)C(F)(F)C(F)(F)F)cc1 (centres unmarked) [Example F1]	15.0	500			
C[n+]1ccc(C(=O)NCCOC(=O)C(F)(C(F)(F)F)C(F)(F)C(F)(F)C(F)(F)C(F)(F)C(F)(F)C(F)(F)F)cc1 (centres unmarked) [Example F2]	15.5	30			
C[N+](C)(CCO)CCCNC(=O)C(F)(C(F)(F)F)C(F)(F)C(F)(F)C(F)(F)C(F)(F)C(F)(F)F (centres unmarked) [Example F3]	17.0	1000			
C[N+](C)(CCO)CCCNC(=O)C(F)(C(F)(F)F)C(F)(F)C(F)(F)C(F)(F)C(F)(F)C(F)(F)C(F)(F)C(F)(F)F (centres unmarked) [Example F4]	19.0	300			
O=C(NCCC[N+]1(CCO)CCOCC1)C(F)(C(F)(F)F)C(F)(F)C(F)(F)C(F)(F)C(F)(F)C(F)(F)C(F)(F)C(F)(F)F (centres unmarked) [Example F5]	20.8				
CN(C)CCCN(CCCN(C)C)C(=O)C(F)(C(F)(F)F)C(F)(F)C(F)(F)C(F)(F)C(F)(F)C(F)(F)C(F)(F)C(F)(F)F (centres unmarked) [Example F9, C7 F15 CF(CF3)CON[C3 H6 N^+ (CH3)2 H]2 2[-OOCCH3]]	22.0	1000			
C[N+](C)(CCCNC(=O)C(F)(C(F)(F)F)C(F)(F)C(F)(F)C(F)(F)C(F)(F)C(F)(F)C(F)(F)C(F)(F)F)CCC(=O)[O-] (centres unmarked) [Example K1, C7 F15 CF(CF3)CONH(CH2)3 N^+ (CH3)2C2 H4 COO^-]	16.6	125			
O=C([O-])CC[N+]1(CCCNC(=O)C(F)(C(F)(F)F)C(F)(F)C(F)(F)C(F)(F)C(F)(F)C(F)(F)C(F)(F)C(F)(F)F)CCOCC1 (centres unmarked) [Example K3]	19.2				

Molecule	Surf. Tens. ([1]; Table 3) [dynes/cm]	CMC ([1]; Table 3) [ppm]	Surf. Tens. ([1]; Table 5) [dynes/cm]	CMC ([1]; Table 5) [ppm]	also measured
C[N+](C)(CCCN(CCC[N+](C)(C)CCC(=O)[O-])C(=O)C(F)(C(F)(F)F)C(F)(F)C(F)(F)C(F)(F)C(F)(F)C(F)(F)C(F)(F)C(F)(F)F)CCC(=O)[O-] (centres unmarked) [Example K4]	23.6	100			
O=C(O)C(F)(C(F)(F)F)C(F)(F)C(F)(F)C(F)(F)C(F)(F)C(F)(F)F (centres unmarked) [Example M15, C5 F11 CF(CF3)COO^- H4 N^+]			22.1	> 10000	Temperature for: 50% loss ([2]; listed as N2): 178 °C; Temperature for: 90% loss ([2]; listed as N2): 188 °C; Temperature for: Onset ([2]; listed as N2): 166 °C
O=C(O)C(F)(C(F)(F)F)C(F)(F)C(F)(F)C(F)(F)C(F)(F)C(F)(F)C(F)(F)C(F)(F)C(F)(F)F (centres unmarked) [Example M17, C8 F17 CF(CF3)COO^- H4 N^+]			14.7	2300	Temperature for: 50% loss [2]: 162 °C; Temperature for: 90% loss [2]: 184 °C; Temperature for: Onset [2]: 142 °C
O=C(O)C(F)(C(F)(F)F)C(F)(F)C(F)(F)C(F)(F)C(F)(F)C(F)(F)C(F)(F)C(F)(F)C(F)(F)C(F)(F)C(F)(F)F (centres unmarked) [Example M18, C10 F21 CF(CF3)COO^- H4 N^+]			14.8	600	Temperature for: 50% loss [2]: 181 °C; Temperature for: 90% loss [2]: 188 °C; Temperature for: Onset [2]: 164 °C
O=C(O)C(F)(C(F)(F)C(F)(F)F)C(F)(F)C(F)(F)C(F)(F)C(F)(F)C(F)(F)C(F)(F)F (centres unmarked) [Example M19, C6 F13 CF(C2 F5)COO^- H4 N^+]					Temperature for: 50% loss [2]: 171 °C; Temperature for: 90% loss [2]: 188 °C; Temperature for: Onset [2]: 153 °C
O=C(O)C(F)(C(F)(F)F)C(F)(F)C(F)(F)C(F)(F)C(F)(F)C(F)(F)C(F)(F)C(F)(F)F (centres unmarked) [Example M20, C7 F15 CF(CF3)COO^- H3 N^+ C2 H4 OH]			15.0	500	
O=C(O)C(F)(C(F)(F)F)C(F)(F)C(F)(F)C(F)(F)C(F)(F)C(F)(F)C(F)(F)F (centres unmarked) [Example M22, C6 F13 CF(CF3)COO^- K^+]			17.5	10000	
O=C(O)C(F)(C(F)(F)F)C(F)(F)C(F)(F)C(F)(F)C(F)(F)C(F)(F)C(F)(F)C(F)(F)F (centres unmarked) [Example M23, C7 F15 CF(CF3)COO^- K^+]			15.0	2500	
O=C(O)C(F)(C(F)(F)F)C(F)(F)C(F)(F)C(F)(F)C(F)(F)C(F)(F)C(F)(F)C(F)(F)C(F)(F)F (centres unmarked) [Example M24, C8 F17 CF(CF3)COO^- K^+]			16.4	3000	
O=C(O)C(F)(C(F)(F)F)C(F)(F)C(F)(F)C(F)(F)C(F)(F)C(F)(F)C(F)(F)F (centres unmarked) [Example M25, C6 F13 CF(CF3)COO^- Na^+]			19.8	10000	
O=C(O)C(F)(C(F)(F)F)C(F)(F)C(F)(F)C(F)(F)C(F)(F)C(F)(F)C(F)(F)C(F)(F)F (centres unmarked) [Example M26, C7 F15 CF(CF3)COO^- Na^+]			19.4	3000	
O=C(O)C(F)(C(F)(F)F)C(F)(F)C(F)(F)C(F)(F)C(F)(F)C(F)(F)C(F)(F)C(F)(F)F (centres unmarked) [Example M27, C7 F15 CF(CF3)COO^- Li^+]			24.1	3500	
O=C(O)C(F)(C(F)(F)F)C(F)(F)C(F)(F)C(F)(F)C(F)(F)C(F)(F)F (centres unmarked) [Example M28, C5 F11 CF(CF3)COO^- Na^+]					Temperature for: 50% loss ([2]; listed as N8): 250 °C; Temperature for: 90% loss ([2]; listed as N8): 263 °C; Temperature for: Onset ([2]; listed as N8): 236 °C
O=C(O)C(F)(C(F)(F)F)C(F)(F)C(F)(F)C(F)(F)C(F)(F)C(F)(F)C(F)(F)C(F)(F)F (centres unmarked) [Example M30, C7 F15 CF(CF3)COO^- 1/2[H3 N^+ C2 H4 NHC2 H4 N^+ H3]]			16.2	3000	
O=C(O)C1(F)C(F)(F)C(F)(F)C(F)(F)C(F)(F)C1(F)F [U.S. Pat. No. 2,567,011, reference compound]					Temperature for: 50% loss [2]: 110 °C; Temperature for: 90% loss [2]: 120 °C; Temperature for: Onset [2]: 100 °C
C6 F13 CF(CF3)CON(C3 H6 SO3^-)(CH2)3 N^+ (CH3)2 H [Example K2]	20.3	500			
C8 F17 CF(CF3)CO(OCH2 CH2)16 OCH3 [Example J1]	22	150			
